Reference: patent US20080187490A1, “Methods for Treating Amyotrophic Lateral Sclerosis” (priority 2005, published 2008)
No end group written: not given here.

How the values were obtained:
[1] = system: human C1q; assay: Reverse ELISA: inhibition of PAP immune complex binding to C1q coated plates; details: for OD 405 nm: PAP pre-incubated with peptide or C1q one hour, 30 min on C1q plates, lower OD = more inhibition, positive control 2.355; for inhibition of C1q binding (in words): ranking among peptides of Table 1
Text: (§1) For this reason, a “reverse ELISA” technique was used to assess binding of the Fc region to ligands that bind to immune complexed IgG Fc. In a reverse ELISA, the enzyme (e.g., HRP) is not covalently conjugated to the Fc portion of the secondary antibody. Rather, a preformed immune complex of peroxidase-rabbit (or mouse) anti-peroxidase IgG (“PAP” complex) is used. […] In these experiments, an Fe CH2-CH3 cleft binding ligand (e.g., purified human C1q) was bound to microwell plates. In the absence of competitor, PAP complexes bound to the immobilized ligand and the reaction between HRP and its substrate produced a signal. This signal was reduced by polypeptides and compounds provided herein that inhibited PAP binding to the immobilized ligand.
PAP complexes were formed mixing 2 μl of rabbit anti-peroxidase (Sigma Chemicals, St. Louis, Mo.) with 50 μl of peroxidase (Sigma-Aldrich, St. Louis, Mo.) in 1 ml distilled water. PAP (100 μl) were pre-incubated with 100 μl of peptide for one hour, 100 μl were pre-incubated with 100 μl of peptide or human C1q (Quidel Corp., San Diego, Calif.) for one hour. The C1q/PAP and peptide/PAP mixtures (100 μl) were incubated with C1q coated plates for 30 minutes. After washing, plates were incubated with ATBS (Quidel Corp.) for 15 minutes and read at 405 nm.

[2] = system: FcγIIa; assay: Reverse ELISA: inhibition of PAP immune complex binding to FcγIIa coated plates; details: PAP pre-incubated with peptide one hour; lower OD = more inhibition; positive control 1.599
Text: as §1
(§2) Once the reverse ELISA protocol was established using the C1q assay, the assay was redesigned using FcγIIa, FcγIIb, and FcγIII in place of C1q. Highly purified FcγIIa, FcγIIb and FcγIII were immunoadsorbed onto plastic microwells. After optimizing the FcγR reverse ELISA system, simple competitive inhibition experiments using polypeptides provided herein were conducted to investigate their ability to inhibit binding of immune complexes to purified FcγR.
(§3) Falcon microtiter plates were coated with 1:10 dilutions of highly purified FcγIIa, FcγIIb and FcγIII and incubated for 24 hours. The plates were washed and then blocked with 5×BSA blocking solution (Alpha Diagnostic International, San Antonio, Tex.) for 24 hours. PAP immune complexes were formed as described above. PAP (100 μl) were pre-incubated with 100 μl of peptide for one hour. PAP/peptide mixtures were added to the FcγR coated plates and incubated for one hour. After washing, plates were incubated with ABTS substrate for 15 minutes and read at 405 nm.

[3] = system: FcγIIb; assay: Reverse ELISA: inhibition of PAP immune complex binding to FcγIIb coated plates; details: PAP pre-incubated with peptide one hour; lower OD = more inhibition; positive control 1.394
Text: as §1, §2, §3

[4] = system: FcγIII; assay: Reverse ELISA: inhibition of PAP immune complex binding to FcγIII coated plates; details: PAP pre-incubated with peptide one hour; lower OD = more inhibition; positive control 1.588
Text: as §1, §2, §3

[5] = system: apo monomeric mutant SOD1 C57S (mSOD1C57S); assay: Reverse ELISA: inhibition of immune complexed IgG (PAP) binding to mSOD1C57S coated plates; details: for mSOD1C57S (OD read at 405 nm): PAP pre-incubated with peptide one hour, 60 min on plates, positive control […]; for inhibition of mSOD1C57S binding to PAP (in words): ranking among peptides of Table 3
Method: (§4) PAP complexes were prepared as described in Example 2. PAP (100 μl) were pre-incubated with 100 μl of peptide for one hour, and control (200 μl of PAP) also was incubated for one hour. 100 μl of either PAP or PAP/peptide was added to Falcon microtiter plates that had been coated for 24 hours with either 0.8 μg/ml human wtSOD1 (Sigma-Aldrich) or apo (non Cu, Zn containing) monomeric mutant SOD1 C57S (mSOD1C57S). The PAP or peptide/PAP mixtures (100 μl) were added after one hour to either wt SOD1 or mSOD1C57S coated plates for 60 minutes. After washing, plates were incubated with ATBS for 15 minutes and read at 405 nm.

[6] = system: FcR; assay: FcγR reverse ELISA, overall statement on FcR binding to PAP; details: ranking among peptides of Table 2
Method: as §2, §3

[7] = system: human wtSOD1; assay: Reverse ELISA: inhibition of immune complexed IgG (PAP) binding to wt SOD1 coated plates; details: for wt SOD1 (OD read at 405 nm): PAP pre-incubated with peptide one hour, 60 min on plates, positive control 2.900; for inhibition of wt SOD1 binding to PAP (in words): ranking among peptides of Table 3
Method: as §4

[8] = system: IgG Fc; assay: Alanine substitution, binding of SEQ ID NO:16 to IgG Fc; details: alanine substitution of IgG Fc Asn-434, His-435, or Tyr-436
[9] = molecular target: human C1q (Quidel Corp.) (human) (UniProt P02745); assay: reverse ELISA: PAP without competitor on C1q-coated plate
[10] = molecular target: FcγIIb (highly purified); assay: reverse ELISA: PAP without competitor on FcγIIb-coated plate
[11] = molecular target: FcγIIa (highly purified); assay: reverse ELISA: PAP without competitor on FcγIIa-coated plate
[12] = molecular target: FcγIII (highly purified); assay: reverse ELISA: PAP without competitor on FcγIII-coated plate
[13] = molecular target: preformed immune complex of peroxidase-rabbit anti-peroxidase IgG (PAP complex) (rabbit; horseradish) (UniProt P00433); assay: competition reverse ELISA: PAP pre-incubated with peptide, residual PAP binding to FcγIII-coated plate (competitor: immobilized FcγIII)
[14] = molecular target: preformed immune complex of peroxidase-rabbit anti-peroxidase IgG (PAP complex) (rabbit; horseradish) (UniProt P00433); assay: competition reverse ELISA: PAP pre-incubated with peptide, residual PAP binding to FcγIIb-coated plate (competitor: immobilized FcγIIb)
[15] = molecular target: preformed immune complex of peroxidase-rabbit anti-peroxidase IgG (PAP complex) (rabbit; horseradish) (UniProt P00433); assay: competition reverse ELISA: PAP pre-incubated with peptide, residual PAP binding to C1q-coated plate (competitor: immobilized C1q)
[16] = molecular target: preformed immune complex of peroxidase-rabbit anti-peroxidase IgG (PAP complex) (rabbit; horseradish) (UniProt P00433); assay: competition reverse ELISA: PAP pre-incubated with peptide, residual PAP binding to FcγIIa-coated plate (competitor: immobilized FcγIIa)
[17] = molecular target: preformed immune complex of peroxidase-rabbit anti-peroxidase IgG (PAP complex) (rabbit; horseradish) (UniProt P00433); assay: competition reverse ELISA: PAP pre-incubated with peptide, residual PAP binding to mSOD1C57S-coated plate (competitor: immobilized mSOD1C57S)
[18] = molecular target: preformed immune complex of peroxidase-rabbit anti-peroxidase IgG (PAP complex) (rabbit; horseradish) (UniProt P00433); assay: competition reverse ELISA: PAP pre-incubated with peptide, residual PAP binding to wt SOD1-coated plate (competitor: immobilized wt SOD1)

Chain of preformed immune complex of peroxidase-rabbit anti-peroxidase IgG (PAP complex) (P00433 31-338, one chain of several): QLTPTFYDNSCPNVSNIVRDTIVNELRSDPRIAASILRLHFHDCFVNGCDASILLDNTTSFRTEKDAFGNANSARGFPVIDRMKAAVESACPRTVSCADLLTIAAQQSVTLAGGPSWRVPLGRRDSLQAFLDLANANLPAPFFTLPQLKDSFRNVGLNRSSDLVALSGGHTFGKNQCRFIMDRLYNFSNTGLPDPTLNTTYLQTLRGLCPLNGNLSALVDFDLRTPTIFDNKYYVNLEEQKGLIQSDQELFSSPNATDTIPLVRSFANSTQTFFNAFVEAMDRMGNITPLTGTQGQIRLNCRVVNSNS
Chain of preformed immune complex of peroxidase-rabbit anti-peroxidase IgG (PAP complex) (rabbit; horseradish) (P00433 31-338, one chain of several): as above
Chain of human C1q (Quidel Corp.) (human) (P02745 23-245 limits assumed, chain 1 of 3): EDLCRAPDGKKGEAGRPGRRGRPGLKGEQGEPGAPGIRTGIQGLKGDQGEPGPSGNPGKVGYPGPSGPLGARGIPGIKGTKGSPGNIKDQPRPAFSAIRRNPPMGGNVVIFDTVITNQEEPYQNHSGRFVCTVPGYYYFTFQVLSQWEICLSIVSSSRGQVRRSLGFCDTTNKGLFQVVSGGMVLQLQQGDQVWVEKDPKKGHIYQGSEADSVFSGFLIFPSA
Chain of human C1q (Quidel Corp.) (human) (P02746 28-253 limits assumed, chain 2 of 3, further chain): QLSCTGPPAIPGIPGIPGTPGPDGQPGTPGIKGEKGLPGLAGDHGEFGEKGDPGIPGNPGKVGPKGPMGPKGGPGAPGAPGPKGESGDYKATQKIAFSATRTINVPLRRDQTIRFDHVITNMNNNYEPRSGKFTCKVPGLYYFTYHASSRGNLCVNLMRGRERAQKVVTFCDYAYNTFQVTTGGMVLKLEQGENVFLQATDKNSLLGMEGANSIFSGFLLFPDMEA
Chain of human C1q (Quidel Corp.) (human) (P02747 29-245 limits assumed, chain 3 of 3, further chain): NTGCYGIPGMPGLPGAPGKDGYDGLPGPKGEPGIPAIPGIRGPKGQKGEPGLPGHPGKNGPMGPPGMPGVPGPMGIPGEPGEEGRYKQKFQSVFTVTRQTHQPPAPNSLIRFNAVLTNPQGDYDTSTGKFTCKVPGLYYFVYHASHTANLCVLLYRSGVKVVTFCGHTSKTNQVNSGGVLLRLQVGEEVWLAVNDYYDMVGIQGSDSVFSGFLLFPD
Chain of FcγIIa (highly purified) (P12318 34-317): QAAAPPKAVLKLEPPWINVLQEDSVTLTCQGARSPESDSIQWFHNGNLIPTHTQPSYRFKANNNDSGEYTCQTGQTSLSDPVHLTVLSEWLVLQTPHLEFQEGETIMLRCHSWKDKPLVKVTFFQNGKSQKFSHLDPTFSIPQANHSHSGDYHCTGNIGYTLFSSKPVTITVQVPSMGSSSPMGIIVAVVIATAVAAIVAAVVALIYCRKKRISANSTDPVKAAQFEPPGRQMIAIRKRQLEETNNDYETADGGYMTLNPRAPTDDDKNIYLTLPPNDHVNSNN
Chain of FcγIIb (highly purified) (P31994 43-310): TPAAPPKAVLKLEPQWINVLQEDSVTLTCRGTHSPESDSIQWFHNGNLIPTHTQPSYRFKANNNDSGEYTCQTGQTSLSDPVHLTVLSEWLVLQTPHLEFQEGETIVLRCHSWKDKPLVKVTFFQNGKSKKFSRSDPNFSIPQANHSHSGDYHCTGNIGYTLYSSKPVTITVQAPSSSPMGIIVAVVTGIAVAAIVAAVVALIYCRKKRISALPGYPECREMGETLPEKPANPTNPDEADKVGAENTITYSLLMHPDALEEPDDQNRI

| OD 405 nm [13] [OD 405 nm] | OD 405 nm [14] [OD 405 nm] | OD 405 nm [15] [OD 405 nm] | OD 405 nm [16] [OD 405 nm] | Molecule | OD 405 nm [1] | FcγIIa (OD read at 405 nm) [2] | FcγIIb (OD read at 405 nm) [3] | FcγIII (OD read at 405 nm) [4] | also measured |
| --- | --- | --- | --- | --- | --- | --- | --- | --- | --- |
|  |  |  |  | APPCAFHLGELVWCT (not fully specified; cysteine pairing not given here) [SEQ ID NO:15] | 0.983 | 0.605 | 0.380 | 0.880 |  |
|  |  |  |  | APPCARHLGELVWCT [SEQ ID NO:14] | 0.567 | 0.956 | 0.768 | 0.709 | inhibition of C1q binding (in words) [1]: next best result |
|  |  |  |  | APPCAWHLGELVWCT [SEQ ID NO:13] | 1.148 | 0.658 | 0.562 | 0.530 |  |
|  |  |  |  | Ala-Pro-Pro-Asp-Cys-Ala-Trp-His-Leu-Gly-Glu-Leu-Val-Trp-Cys-Thr (APPDCAWHLGELVWCT) [SEQ ID NO:16] | 0.389 | 0.509 | 0.496 | 0.670 | inhibition of C1q binding (in words) [1]: greatest inhibition; mSOD1C57S (OD read at 405 nm) [5]: 0.226; inhibition of mSOD1C57S binding to PAP (in words) [5]: greatest inhibition; inhibition of mSOD1C57S binding to PAP (in words) ([5]; listed as 16): best inhibition; inhibition of FcR binding to PAP (in words) [6]: greatest inhibition; wt SOD1 (OD read at 405 nm) [7]: 0.277; inhibition of wt SOD1 binding to PAP (in words) [7]: greatest inhibition; inhibition of wt SOD1 binding to PAP (in words) ([7]; listed as 16): best inhibition; ΔΔG, disruption of binding [8]: ≥ 1.5 kcal/mol |
|  |  |  |  | Asp-Cys-Ala-Phe-His-Leu-Gly-Glu-Leu-Val-Trp-Cys-Thr (DCAFHLGELVWCT) [SEQ ID NO:3] | 0.859 | 0.660 | 0.510 | 0.810 |  |
|  |  |  |  | Asp-Cys-Ala-Trp-His-Leu-Gly-Glu-Leu-Val-Trp-Cys-Thr [SEQ ID NO:2] | 1.100 | 0.561 | 0.532 | 0.741 | mSOD1C57S (OD read at 405 nm) [5]: 0.592; inhibition of mSOD1C57S binding to PAP (in words) ([5]; listed as 2): inhibited; wt SOD1 (OD read at 405 nm) [7]: 0.292; inhibition of wt SOD1 binding to PAP (in words) ([7]; listed as 2): inhibited |
|  |  |  |  | preformed immune complex of peroxidase-rabbit anti-peroxidase IgG (PAP complex) (from UniProt P00433 31-338) (antibody) |  |  |  |  | OD 405 nm [9]: 2.35 OD 405 nm; OD 405 nm [10]: 1.39 OD 405 nm; OD 405 nm [11]: 1.6 OD 405 nm; OD 405 nm [12]: 1.59 OD 405 nm |
| 0.88 | 0.38 | 0.983 | 0.605 | APPCAFHLGELVWCT (not fully specified; cysteine pairing not given here) [Peptide … (SEQ ID NO:15)] |  |  |  |  |  |
| 0.53 | 0.562 | 1.15 | 0.658 | APPCAWHLGELVWCT (not fully specified; cysteine pairing not given here) [Peptide … (SEQ ID NO:13)] |  |  |  |  |  |
| 0.81 | 0.51 | 0.859 | 0.66 | DCAFHLGELVWCT [Peptide … (SEQ ID NO:3)] |  |  |  |  |  |
| 0.709 | 0.768 | 0.567 | 0.956 | APPCARHLGELVWCT (not fully specified; cysteine pairing not given here) [Peptide … (SEQ ID NO:14)] |  |  |  |  |  |
| 0.67 | 0.496 | 0.389 | 0.509 | APPDCAWHLGELVWCT [Peptide … (SEQ ID NO:16)] |  |  |  |  | OD 405 nm [17]: 0.226 OD 405 nm; OD 405 nm [18]: 0.277 OD 405 nm |
